# According to ChEMBL document CHEMBL1153842, “Trioxaquines and heme-artemisinin adducts inhibit the in vitro formation of hemozoin better than chloroquine” (Antimicrob Agents Chemother, 2007):
# Active and inactive are the calls of the source. The rule behind the calls is not given here.
# Experiments:
# Type in all cases: functional
# [1] = biological target: T1, Histidine-rich protein PFHRP-II (Plasmodium falciparum) (UniProt P05227); experiment: Inhibition of beta-hematin formation at drug to heme molar equivalent ratio of 3 by infrared spectra measured after 18 hrs
# T1 sequence (whole entry): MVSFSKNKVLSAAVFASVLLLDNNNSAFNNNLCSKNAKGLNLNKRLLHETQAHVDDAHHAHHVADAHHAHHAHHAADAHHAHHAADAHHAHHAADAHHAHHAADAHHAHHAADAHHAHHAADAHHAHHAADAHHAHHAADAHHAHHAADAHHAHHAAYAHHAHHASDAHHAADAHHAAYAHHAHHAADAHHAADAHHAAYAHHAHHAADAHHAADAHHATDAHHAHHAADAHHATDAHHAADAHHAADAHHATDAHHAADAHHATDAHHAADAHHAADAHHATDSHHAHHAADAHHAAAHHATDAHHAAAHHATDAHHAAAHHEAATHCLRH
# [2] = biological target: T1, Histidine-rich protein PFHRP-II (Plasmodium falciparum); experiment: Inhibition of beta-hematin formation at drug to heme molar equivalent ratio of 15 by infrared spectra measured after 18 hrs
# [3] = biological target: T1, Histidine-rich protein PFHRP-II (Plasmodium falciparum); experiment: Inhibition of beta-hematin formation at drug to heme molar equivalent ratio of 2 by infrared spectra measured after 18 hrs
# [4] = biological target: T1, Histidine-rich protein PFHRP-II (Plasmodium falciparum); experiment: Inhibition of beta-hematin formation at drug to heme molar equivalent ratio of 10 by infrared spectra measured after 18 hrs
# [5] = biological target: T1, Histidine-rich protein PFHRP-II (Plasmodium falciparum); experiment: Inhibition of beta-hematin formation at 1:1 drug to heme ratio by infrared spectra measured after 18 hrs
structure (smiles),measurement,setting,value
COc1cc(NC(C)CCCNC2CCC3(CC2)OOC2CCC(C(C)C)=CC2O3)c2ncccc2c1 (centres undefined),Activity,[1],Active
C[C@H]1[C@H](OC(=O)CCC(=O)O)O[C@@H]2O[C@@]3(C)CC[C@H]4[C@H](C)CC[C@@H]1[C@@]24OO3,Activity,[2],inactive
CC(C)C1=CC2OC3(CCC(NCCNc4ccnc5cc(Cl)ccc45)CC3)OOC2CC1 (centres undefined),Activity,[3],Active
CO[C@H]1O[C@@H]2O[C@@]3(C)CC[C@H]4[C@H](C)CC[C@@H]([C@H]1C)[C@@]24OO3,Activity,[2],inactive
NCCNc1ccnc2cc(Cl)ccc12,Activity,[4],Active
CCN(CC)CCCC(C)Nc1ccnc2cc(Cl)ccc12 (centres undefined),Activity,[4],Active
COc1cc(NC(C)CCCN)c2ncccc2c1 (centres undefined),Activity,[2],inactive
C[C@@H]1CC[C@H]2[C@@H](C)C(=O)O[C@@H]3O[C@@]4(C)CC[C@@H]1[C@]32OO4,Activity,[5],Active
same,Activity,[2],inactive
